According to patent publication US11753363B2, “13-oxidized ingenol derivative and use thereof” (Tianjin Pharmaceutical Da Ren Tang Group Corp., Ltd. …, priority 2017, dated 2023):
Converted amounts (≈) assume the structure as drawn.

Key:
[1] = test system: mouse B16-F10 melanoma cells; assay: Inhibition of proliferation of tumor cell lines (MTT), B16-F10; format: cell-based; conditions: B16-F10, 72 h; for IC50: Mus musculus, read-out: IC50 value of compound for inhibition of proliferation of tumor cell lines, B16-F10
Protocol: (§1) In this example, the inhibitory activity of compounds of the present invention against proliferation of seven human tumor cell lines and mouse B16-F10 melanoma cells was tested in vitro, and the IC50 value (50% inhibitory concentration) of compounds against each tumor cell line was calculated.
(§2) IC50 values of the compounds for A549, BGC-823, LOVO, MCF-7, SMMC-7721, HeLa, and B16-F10 cells were tested. The above cells were routinely cultured in 1640 nutrient solution containing 10% calf serum, with passage for 1 time every 2 days, and the cells in logarithmic growth phase were taken for experiments. After the A549, BGC-823, LOVO, MCF-7, SMMC-7721, HeLa and B16-F10 cells in logarithmic growth phase were subjected to 0.25% trypsin digestion, they were blown into a single cell suspension, and then the cell concentration was adjusted to about 1×10^5·mL^−1 using RPMI 1640 solution containing 10% calf serum. The cells were seeded in a 96-well culture plate at 100 μL per well, and cultured for 24 hours until the cells were attached. K562 cells were taken and centrifuged and diluted into 2×10^5·mL^−1 single cell suspension with RPMI 1640 solution containing 10% calf serum, and inoculated into a 96-well culture plate at 100 μL per well.
(§3) 100 μL of sample solution with different concentrations to be tested were added to the above 96-well plate, each concentration was added to 4 wells in parallel, and the cell control group was added with an equal volume of RPMI 1640 medium containing 10% calf serum to make a reaction volume of 200 μL. After incubating in an incubator at 37° C., 5% CO2 for 72 h, 10 μL of 5 mg·mL^−1 MTT solution was added to each well, and incubated at 37° C. for 4 h. The supernatant was carefully aspirated, 180 μL of DMSO was added to each well followed by shaking, and the absorbance (OD) value was measured at 570 nm on the microplate reader. The inhibition rate was calculated, and regression equation was established with the logarithmic value of the sample concentration and the inhibition rate (IR) to find the IC50 value of the compound against the cells to be tested. IR (%)=(1−OD value of the experimental group/OD value of the cell control group)×100%

[2] = test system: MCF-7 (human breast cancer cells); assay: Inhibition of proliferation of tumor cell lines (MTT), MCF-7; format: cell-based; conditions: for IC50: Homo sapiens, MCF7, MCF-7, 72 h, read-out: IC50 value of compound for inhibition of proliferation of tumor cell lines, MCF-7
Protocol: as §1
(§4) The seven human tumor cell lines are: MCF-7 (human breast cancer cells), LOVO (human colon cancer cells), A549 (human lung cancer cells), BGC-823 (human gastric cancer cells), SMMC-7721 (human liver cancer cells), K562 (human leukemia cells), and HeLa (human cervical cancer cells).
as §2, §3

[3] = test system: LOVO (human colon cancer cells); assay: Inhibition of proliferation of tumor cell lines (MTT), LOVO; format: cell-based; conditions: 72 h; for IC50: Homo sapiens, read-out: IC50 value of compound for inhibition of proliferation of tumor cell lines, LOVO
Protocol: as §1, §4, §2, §3

[4] = test system: SMMC-7721 (human liver cancer cells); assay: Inhibition of proliferation of tumor cell lines (MTT), SMMC-7721; format: cell-based; conditions: SMMC-7721, 72 h; for IC50: Homo sapiens, read-out: IC50 value of compound for inhibition of proliferation of tumor cell lines, SMMC-7721
Protocol: as §1, §4, §2, §3

[5] = test system: HeLa (human cervical cancer cells); assay: Inhibition of proliferation of tumor cell lines (MTT), HeLa; format: cell-based; conditions: 72 h; for IC50: Homo sapiens, read-out: IC50 value of compound for inhibition of proliferation of tumor cell lines, HeLA
Protocol: as §1, §4, §2, §3

[6] = test system: K562 (human leukemia cells); assay: Inhibition of proliferation of tumor cell lines (MTT), K562; format: cell-based; conditions: K562, 72 h; for IC50: Homo sapiens, read-out: IC50 value of compound for inhibition of proliferation of tumor cell lines, K562
Protocol: as §1, §4, §2, §3

[7] = test system: A549 (human lung cancer cells); assay: Inhibition of proliferation of tumor cell lines (MTT), A549; format: cell-based; conditions: A549, 72 h; for IC50: Homo sapiens, read-out: IC50 value of compound for inhibition of proliferation of tumor cell lines, A549
Protocol: as §1, §4, §2, §3

[8] = test system: neutrophilic granulocytes; assay: Neutrophil oxidative burst (luminol chemiluminescence); format: cell-based; conditions: rat neutrophils, (Csample−Ccontrol)/Ccontrol×100%
Protocol: This example investigated the effect of compound on neutrophil oxidative burst and calculated the efficiency of each compound in stimulating neutrophil oxidative burst.
Blood was taken from the abdominal aorta of rat. The neutrophilic granulocytes were isolated by the operational procedure of the rat peripheral blood neutrophil isolation kit. The neutrophilic granulocytes were re-suspended by Hanks, and were plated in a 96-well white plate at 1×10^5 cells/well, 80 μL/well; 1 mM of Luminol was added at 10 μL/well; 10 μL of the sample was added to each well, and the degree of oxidative burst was evaluated by chemiluminescence. Calculation formula of Efficiency: Efficiency (%)=(Csample−Ccontrol)/Ccontrol×100%

[9] = test system: release of IL-8 by human keratinocytes (HaCaT); assay: Release of IL-8 by human keratinocytes (HaCaT), IL-8 Elisa; format: cell-based; conditions: 24 h, (Csample−Ccontrol)/Ccontrol×100%
Protocol: This Example investigated the effect of compound on release of IL-8 by human keratinocytes (HaCaT) and calculated the efficiency of each compound in stimulating the release of IL-8 by human keratinocytes (HaCaT).
Hacat cells were cultured in MEM+10% FBS under the conditions of 37° C., 5% CO2, and when the cells reached 80-95% fusion, they were inoculated into a 96-well culture plate (1×10^4 cells/well) at 100 μL/well, and incubated for 18-24 h. The supernatant was discarded and the cells were incubated for 3-6 h in 1% FBS medium. Different concentrations of the sample solution of compound to be tested were added to each well, and the cell control group was added with an equal volume of 1% FBS medium at 10 μL/well, and incubated for 24 h. The supernatant was taken and tested according to the operation sequence of the IL-8 Elisa kit. Calculation formula of Efficiency: Efficiency (%)=(Csample−Ccontrol)/Ccontrol×100%

[10] = test system: BGC-823 (human gastric cancer cells); assay: Inhibition of proliferation of tumor cell lines (MTT), BGC-823; format: cell-based; conditions: BGC-823, 72 h; for IC50: Homo sapiens, read-out: IC50 value of compound for inhibition of proliferation of tumor cell lines, BGC-823
Protocol: as §1, §4, §2, §3

B16-F0 mouse melanoma = assay: Antitumor activity in B16-F0 mouse melanoma model; format: in vivo; conditions: female C57BL/6J mice, intradermal B16 tumor, skin administration once per day for 3 days, 20 μL/mouse, tumor weight on day 19
Protocol: This Example investigated the antitumor activity of compounds in B16-F0 mouse melanoma model.
In vitro passage of B16-F0 tumor source was inoculated subcutaneously into female C57BL/6J mice, and passage was carried out after tumor formation. After passage, the subcutaneous tumor tissue of the tumor-bearing mice was taken and ground with 3 times amount of physiological saline to form a tumor cell suspension, and 0.2 mL/mouse of which was inoculated subcutaneously into the axilla of forelimb of mice, which were used as the tumor-source mice. Female C57BL/6J mice were taken and their hair in an area of 4 cm^2 on the neck and back was shaven. After anesthesia with diethyl ether, B16 tumor source was inoculated intradermally at 0.05 mL/mouse. After 3 days of inoculation, the skin was continuously administered for 3 days, once per day, 20 μL/mouse each time, and in the test, a solvent group as a negative control group was included. On the 19th day of the experiment, the experiment was terminated. After the mice were euthanized, the intradermally transplanted tumors were completely separated and excised, and the tumor was weighed to calculate the tumor inhibition rate. Calculation formula of tumor inhibition rate: tumor inhibition rate (%)=(Wmodel group−Wadministration group)/Wmodel group×100%
The tumor growths of the experimental group and the solvent control group were compared to evaluate the antitumor activity of each compound, and the compound with P<0.05 was considered to be effective.

SMILES | IC50 [2] [µg/mL] | IC50 [3] [µg/mL] | IC50 [4] [µg/mL] | IC50 [5] [µg/mL] | IC50 [6] [µg/mL] | IC50 [7] [µg/mL] | IC50 [10] [µg/mL] | IC50 [1] [µg/mL] | also measured
C/C=C(/C)C(=O)O[C@H]1C(C)=C[C@]23C(=O)[C@@H](C=C(CO)[C@@H](O)[C@]12O)[C@H]1[C@@H](C[C@H]3C)C1(C)C [3-O-angeloyl-ingenol, reference compound] |  |  |  |  |  |  |  |  | IC50 value of compound for inhibition of proliferation of tumor cell lines, B16-F10 [1]: 38.1 µg/mL; IC50 value of compound for inhibition of proliferation of tumor cell lines, MCF-7 ([2]; MCF-7, 72 h): 57.4 µg/mL; IC50 value of compound for inhibition of proliferation of tumor cell lines, LOVO [3]: 33.4 µg/mL; IC50 value of compound for inhibition of proliferation of tumor cell lines, SMMC-7721 [4]: 28.2 µg/mL; IC50 value of compound for inhibition of proliferation of tumor cell lines, HeLA [5]: 49.4 µg/mL; IC50 value of compound for inhibition of proliferation of tumor cell lines, K562 [6]: 0.0076 µg/mL; IC50 value of compound for inhibition of proliferation of tumor cell lines, A549 [7]: 31.2 µg/mL; Efficiency of compounds in stimulating neutrophil oxidative burst ([8]; 3 μg/mL): 51.4%; Efficiency of compound in stimulating the release of IL-8 by HaCaT cells ([9]; 0.1 μg/mL): 31.9%; Efficiency of compound in stimulating the release of IL-8 by HaCaT cells ([9]; 1 μg/mL): 41.4%; IC50 value of compound for inhibition of proliferation of tumor cell lines, BGC-823 [10]: 43.5 µg/mL
C/C=C(/C)C(=O)O[C@H]1C(C)=C[C@]23C(=O)[C@@H](C=C(CO)[C@@H](O)[C@]12O)[C@@H]1C(C)(C)[C@]1(OC(C)=O)C[C@H]3C [Compound 8, 3-O-angeloyl-13-O-acetyl-ingenol] | > 50 | > 50 | 96.6 (≈ 198 µM) | > 100 | 0.0065 (≈ 0.0133 µM) | > 50 | > 100 |  | Tumor-inhibition rate (B16-F0 mouse melanoma): 90.3%; activation at 1 µg/mL ([9]; Homo sapiens, HaCaT, 1 μg/mL, read-out: Efficiency of compound in stimulating the release of IL-8 by HaCaT cells): 38.3%
CCCCCCCCCCCC(=O)O[C@@]12C[C@@H](C)[C@]34C=C(C)[C@H](O)[C@@]3(O)[C@H](O)C(COC(=O)C(C)C(C)C)=C[C@H](C4=O)[C@@H]1C2(C)C (stereo partly drawn) [20-O-(2,3-dimethylbutyryl)-13-O-dodecanoyl-ingenol] | 10.1 (≈ 15.7 µM) | 8.36 (≈ 13 µM) | 10.7 (≈ 16.6 µM) | 14.5 (≈ 22.5 µM) | 0.64 (≈ 0.992 µM) | 8.89 (≈ 13.8 µM) | 11 (≈ 17.1 µM) | 16.6 (≈ 25.7 µM) | activation at 3 µg/mL ([8]; Neutrophil, 3 μg/mL, read-out: Efficiency of compounds in stimulating neutrophil oxidative burst): 64.5%
CCCCCCCCCCCC(=O)O[C@@]12C[C@@H](C)[C@]34C=C(C)[C@H](OC(=O)C(C)C(C)C)[C@@]3(O)[C@H](O)C(CO)=C[C@H](C4=O)[C@@H]1C2(C)C (stereo partly drawn) [3-O-(2,3-dimethylbutyryl)-13-O-dodecanoyl-ingenol] | 9.05 (≈ 14 µM) | 7.6 (≈ 11.8 µM) | 14.5 (≈ 22.5 µM) | 24.3 (≈ 37.7 µM) | 0.12 (≈ 0.186 µM) | 11 (≈ 17.1 µM) | 10.4 (≈ 16.1 µM) | 17.8 (≈ 27.6 µM) | activation at 0.1 µg/mL ([8]; Neutrophil, 0.1 μg/mL, read-out: Efficiency of compounds in stimulating neutrophil oxidative burst): 71.4%; activation at 0.1 µg/mL ([9]; Homo sapiens, HaCaT, 0.1 μg/mL, read-out: Efficiency of compound in stimulating the release of IL-8 by HaCaT cells): 50%
